Data on one molecule can be found in ChEMBL document CHEMBL4354877, “MymA Bioactivated Thioalkylbenzoxazole Prodrug Family Active against Mycobacterium tuberculosis” (J Med Chem, 2020).

What all share (type): functional
The subject of assay [1] is Mycobacterium tuberculosis. The experiment in a line: Antimycobacterial activity against Mycobacterium tuberculosis Rv3083::Tn expressing mymA mutant assessed as inhibition of microbial growth incubated for 6 days by alamar blue resazurin assay. Background: Resazurin is reduced to fluorescent resorufin, in cell work by metabolically active cells.
Assay [2] has as its system Mycobacterium tuberculosis. The experiment in a line: Antimycobacterial activity against Mycobacterium tuberculosis 3-RM1 expressing mymA mutant assessed as inhibition of microbial growth incubated for 6 days by alamar blue resazurin assay.
Assay [3] relates to Mycobacterium tuberculosis. The experiment in a line: Antimycobacterial activity against Mycobacterium tuberculosis 2-RM1 expressing ethA frameshift mutant assessed as inhibition of microbial growth incubated for 6 days by alamar blue resazurin assay.
Assay [4] deals with Mycobacterium tuberculosis. Put plainly: Antimycobacterial activity against Mycobacterium tuberculosis SG2 expressing ethA and mymA mutant assessed as inhibition of microbial growth incubated for 6 days by alamar blue resazurin assay.

What is called MIC is the lowest concentration found to suppress growth. In the case of `O=C(CCSc1nc2cc(Cl)ccc2o1)N1CCCC1`, the MIC in assay [1] was 40 µM; in assay [2] it was 40 µM; in assay [3], 10 µM; in assay [4], 80 µM.
